According to patent US20190117547A1, “COSMETIC COMPOSITIONS COMPRISING SCLAREOLIDE” (SYMRISE AG, priority 2016, published 2019):

How the values were obtained:
Type in all cases: cell-based
[1] = tested on: ex vivo human skin explants; assay: Melanin formation after visible light irradiation on ex vivo human skin; conditions: for Inhibition vs Placebo: skin explants, visible light 480 J/cm2; for % of melanin: topical on skin explants, visible light 480 J/cm2, Fontana-Masson stain
Protocol: The below formulations were applied on ex vivo human skin explants from abdominal surgery of a donor with phototype IV (Fitzpatrick scale). 48 h after the formulations were removed with a cotton pad. Skin explants were exposed to visible light (480 J/cm2) with Hydrosun 750 equipped with KG1 filter. Formulations were reapplied afterwards. 48 h later skin sections were prepared and melanin was stained by Fontana-Masson stain. Quantification of melanin was done by image analysis.

EDN1(endothelin 1) = assay: UVB induced gene expression (RTq PCR), EDN1; conditions: HaCaT cells, 50 μM Sclareolide, 20 mJ/cm^2 UVB, 24 hours; normalized to HPRT1 (UVB alone 22.7)
Protocol: (§1) HaCaT cells are seeded into a 12-well plate with 2.0×10^5 cells/well. After incubation over night the test compound (50 μM Sclareolide) is added to the cells and the plate is incubated for two more hours. Then cells are washed with PBS and irradiated with 20 mJ/cm^2 UVB (UVITEC Cambridge, 312 nm). PBS is removed and medium (control and with test compound) added. Cells are incubated for 24 hours. RNA is extracted and purified using the RNeasy kit (Qiagen) according to the manufacturer's instructions. The RNA concentration is determined with a photometer (Eppendorf) and 2 μg are used for reverse transcription, that is performed with the TaqMan® MicroRNACells-to-CT™ Kit (Ambion) like described in the user manual. Quantitative real time PCR is performed using the Applied Biosystems StepOne™ with customized TaqMan® Array Fast Plates with following primers: HPRT1 (hypoxanthine phosphoribosyltransferase 1) as housekeeping gene, EDN1(endothelin 1), CXCL1 (C—X—C motif chemokine ligand 1), IL6 (interleukin 6) and IL8 (C—X—C motif chemokine ligand 8). Target gene transcript levels are normalized to the HPRT1 transcript level and the relative transcript changes are calculated using the RQ=2-ΔΔCt method.

[2] = tested on: CXCL1 (C—X—C motif chemokine ligand 1); assay: UVB induced gene expression (RTq PCR), CXCL1; conditions: HaCaT cells, 50 μM Sclareolide, 20 mJ/cm^2 UVB, 24 hours; normalized to HPRT1 (UVB alone 5.4)
Protocol: as §1

[3] = tested on: Human epidermal melanoma cells A375; assay: Basal melanin formation in vitro; conditions: for melanin: basal (no irradiation)
Protocol: Human epidermal melanoma cells A375 were cultured in 6-well plates. […] 48 h prior to and past to the irradiation the cells were treated with test compounds in non-cytotoxic concentrations. Melanocytes were lysed in a solution of NaOH. Melanin was quantified by measurement of absorbance at 405 nm and calculation based on a melanin standard curve.

[4] = tested on: genes well-known for the induction of hyperpigmentation; assay: UVB induced gene expression (RTq PCR), overall statement; conditions: HaCaT cells, 50 μM Sclareolide, summary in words
Protocol: as §1

[5] = tested on: IL8 (C—X—C motif chemokine ligand 8); assay: UVB induced gene expression (RTq PCR), IL8; conditions: HaCaT cells, 50 μM Sclareolide, 20 mJ/cm^2 UVB, 24 hours; normalized to HPRT1 (UVB alone 17.9)
Protocol: as §1

IL6 (interleukin 6) = assay: UVB induced gene expression (RTq PCR), IL6; conditions: HaCaT cells, 50 μM Sclareolide, 20 mJ/cm^2 UVB, 24 hours; normalized to HPRT1 (UVB alone 8.4)
Protocol: as §1

[6] = tested on: Human epidermal melanoma cells A375; assay: Visible light induced hyperpigmentation in vitro; conditions: for Inhibition vs visible light induced / melanin: visible light 480 J/cm2
Protocol: Human epidermal melanoma cells A375 were cultured in 6-well plates. The cells were exposed to visible light (480 J/cm2) with Hydrosun 750 equipped with KG1 filter. 48 h prior to and past to the irradiation the cells were treated with test compounds in non-cytotoxic concentrations. Melanocytes were lysed in a solution of NaOH. Melanin was quantified by measurement of absorbance at 405 nm and calculation based on a melanin standard curve.

[7] = 0.05% sclareolide formulation (C)
[8] = 0.2% sclareolide formulation (B)

SMILES: CC1(C)CCC[C@]2(C)C3CC(=O)O[C@]3(C)CC[C@@H]12 (stereo partly drawn) [sclareolide, (3aR,5aS,9aS,9bR)-deca hydro-3a,6,6,9a-tetramethylnaphtha[2,1-b]furan-2(1H)-one]
- Inhibition vs Placebo [1, 7]: 1.2%
- % of melanin [1, 7]: 61.33 ± 2.2%
- Inhibition vs Placebo [1, 8]: 32.4%
- % of melanin [1, 8]: 52.46 ± 2.9%
- RQ EDN1 (EDN1(endothelin 1)): 11.9
- RQ CXCL1 [2]: 2.8
- melanin ([3]; 3.16 μM sclareolide): 0.7775 ± 0.0412 µg
- melanin ([3]; 10 μM sclareolide): 0.6554 ± 0.0408 µg
- melanin ([3]; 31.6 μM sclareolide): 0.8851 ± 0.0579 µg
- effect on basal melanin formation ([3]; summary in words): no effect
- inhibition of UVB induced upregulation of genes [4]: inhibits
- RQ IL8 [5]: 10.3
- RQ IL6 (IL6 (interleukin 6)): 5.7
- Inhibition vs visible light induced ([6]; 3.16 μM sclareolide): 18%
- melanin ([6]; 3.16 μM sclareolide): 0.8784 ± 0.0293 µg
- Inhibition vs visible light induced ([6]; 10 μM sclareolide): 67%
- melanin ([6]; 10 μM sclareolide): 0.6306 ± 0.0675 µg
- Inhibition vs visible light induced ([6]; 31.6 μM sclareolide): 70%
- melanin ([6]; 31.6 μM sclareolide): 0.6106 ± 0.0658 µg
- inhibition of visible light induced hyperpigmentation ([6]; summary in words): significantly inhibits
